Measured values published in PMC4866600, “Structural basis for the blockade of MATE multidrug efflux pumps” (Nature Communications, 2015).

Legend:
[1] = molecular target: T1, DinF-BH (Halalkalibacterium halodurans (Bacillus halodurans), UniProt Q9KAX3); assay: biochemical
T1 sequence (Q9KAX3 1-464): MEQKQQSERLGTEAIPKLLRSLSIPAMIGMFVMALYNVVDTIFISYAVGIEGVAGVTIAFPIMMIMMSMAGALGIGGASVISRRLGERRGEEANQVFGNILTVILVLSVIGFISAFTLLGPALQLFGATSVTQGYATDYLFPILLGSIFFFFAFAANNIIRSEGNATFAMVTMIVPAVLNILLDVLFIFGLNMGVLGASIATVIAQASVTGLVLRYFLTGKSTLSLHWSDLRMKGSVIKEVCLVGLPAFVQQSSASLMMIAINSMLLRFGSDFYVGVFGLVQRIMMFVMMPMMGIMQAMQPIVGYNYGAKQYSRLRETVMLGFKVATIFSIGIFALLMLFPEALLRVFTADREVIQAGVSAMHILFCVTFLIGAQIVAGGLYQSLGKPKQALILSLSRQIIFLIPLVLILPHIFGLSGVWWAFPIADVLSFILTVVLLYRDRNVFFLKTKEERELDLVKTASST
Description: (§1) [^3H]-R6G (2.7 Ci mmol^−1, 1.0 mCi ml^−1) was custom-synthesized by Moravek Biochemicals (Brea, California, USA). [^3H]-R6G binding assay was performed by using immobilized protein on Ni-NTA beads[31][42] as follows. Briefly, freshly purified protein (DinF-BH or NorM-NG) was mixed gently with pre-equilibrated Ni-NTA beads at 1 mg ml^−1 in buffers containing 20 mM Tris-HCl pH 8, 50 mM NaCl, 20% (v/v) glycerol, 0.02% (w/v) DDM, 1 mM TCEP (binding buffer) for >1 h at 4 °C. The mixture was centrifuged and the unbound material (supernatant) was discarded.
(§2) The beads were thoroughly washed, resuspended and aliquoted in the binding buffer. […] The samples were then transferred into micro-columns and centrifuged; the unbound material (flow-through) was discarded. The protein was eluted by using the binding buffer supplemented with 500 mM Imidazole. The radioactivity of the eluate was measured by liquid scintillation. […] All the experiments were performed in duplicate and repeated three times.

[2] = molecular target: NorM-NG (Neisseria gonorrhoeae, UniProt Q5F9J8); assay: biochemical; type: binding
Sequence of NorM-NG (Q5F9J8 entry or part of it): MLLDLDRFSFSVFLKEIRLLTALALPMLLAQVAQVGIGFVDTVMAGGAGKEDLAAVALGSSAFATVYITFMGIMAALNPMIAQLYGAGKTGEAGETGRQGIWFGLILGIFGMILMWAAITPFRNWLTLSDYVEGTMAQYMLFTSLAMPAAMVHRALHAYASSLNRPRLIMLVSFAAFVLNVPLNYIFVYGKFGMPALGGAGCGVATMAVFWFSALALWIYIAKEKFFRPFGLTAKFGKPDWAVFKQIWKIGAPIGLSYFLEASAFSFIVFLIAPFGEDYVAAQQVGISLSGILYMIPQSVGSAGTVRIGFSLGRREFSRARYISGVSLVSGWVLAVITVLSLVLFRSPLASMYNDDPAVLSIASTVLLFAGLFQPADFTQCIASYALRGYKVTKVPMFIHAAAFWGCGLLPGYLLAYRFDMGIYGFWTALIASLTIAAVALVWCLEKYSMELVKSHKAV
Description: as §1, §2

## CC[n+]1c(-c2ccccc2)c2cc(N)ccc2c2ccc(N)cc21 [ethidium]
[1]
  Ki: < 25 µM
[2]
  Ki: < 25 µM

## CC/N=c1\cc2oc3cc(NCC)c(C)cc3c(-c3ccccc3C(=O)OCC)c-2cc1C [R6G, rhodamine 6G]
[1]
  Kd: ~5 µM
  Ki: < 10 µM
[2]
  Kd: ~5 µM
  Ki: < 10 µM
